# Assay results published in US20190030018A1 (Celgene Corporation, priority 2017, published 2019).
# System: 563 solid tumor cell lines
# Experiment: Luminex assay in PRISM, 5 days treatment (AUC)
# Type: cell-based
# Set-up: AUC: scale not given here
# Protocol: The AUC values provided in Table 80 below were calculated based on the Median Fluorescent Intensity values, the primary read out of the Luminex assay in PRISM. The following parameters were used in this assay: • 8 point dose was used in triplicate • max concentration of 10 μM was used with serial 4-fold dilutions (low of […]) • 563 adherent cell lines in 23 pools. • treatment duration was 5 days.
smiles,measurement,setting,value
"O=C1CCC(N2Cc3cc(CNC(=O)C(F)(F)c4ccc(Cl)cc4)ccc3C2=O)C(=O)N1 (centres unmarked) [Compound 1, 2-(4-chlorophenyl)-N-((2-(2,6-dioxopiperidin-3-yl)-1-oxoisoindolin-5-yl)methyl)-2,2-difluoroacetamide]",activity on solid tumor cell lines (AUC),"8 point dose, max 10 μM, 5 days","highest activity on lung, intestine, stomach, liver, pancreatic and kidney cell lines"
same,AUC,A101D_SKIN,0.821
same,AUC,A172_CENTRAL_NERVOUS_SYSTEM,0.314
same,AUC,A204_SOFT_TISSUE,0.156
same,AUC,A253_SALIVARY_GLAND,0.864
same,AUC,A375_SKIN,0.795
same,AUC,A498_KIDNEY,0.845
same,AUC,A549_LUNG,0.857
same,AUC,A673_BONE,0.885
same,AUC,A704_KIDNEY,0.823
same,AUC,A2058_SKIN,0.818
same,AUC,A2780_OVARY,0.485
same,AUC,ABC1_LUNG,0.591
same,AUC,ACCMESO1_PLEURA,0.631
same,AUC,ACHN_KIDNEY,0.912
same,AUC,AGS_STOMACH,0.865
same,AUC,AM38_CENTRAL_NERVOUS_SYSTEM,0.543
same,AUC,AN3CA_ENDOMETRIUM,0.861
same,AUC,BCPAP_THYROID,0.782
same,AUC,BECKER_CENTRAL_NERVOUS_SYSTEM,0.874
same,AUC,BEN_LUNG,0.826
same,AUC,BFTC909_KIDNEY,0.843
same,AUC,BHT101_THYROID,0.858
same,AUC,BHY_UPPER_AERODIGESTIVE_TRACT,0.405
same,AUC,BICR6_UPPER_AERODIGESTIVE_TRACT,0.801
same,AUC,BICR16_UPPER_AERODIGESTIVE_TRACT,0.585
same,AUC,BICR18_UPPER_AERODIGESTIVE_TRACT,0.845
same,AUC,BICR56_UPPER_AERODIGESTIVE_TRACT,0.984
same,AUC,BT474_BREAST,0.801
same,AUC,BT549_BREAST,0.242
same,AUC,BXPC3_PANCREAS,0.916
same,AUC,C32_SKIN,0.881
same,AUC,CADOES1_BONE,0.566
same,AUC,CAKI2_KIDNEY,0.867
same,AUC,CAL12T_LUNG,0.366
same,AUC,CAL27_UPPER_AERODIGESTIVE_TRACT,0.812
same,AUC,CAL29_URINARY_TRACT,0.831
same,AUC,CAL51_BREAST,0.589
same,AUC,CAL54_KIDNEY,0.679
same,AUC,CAL62_THYROID,0.083
same,AUC,CAL78_BONE,0.798
same,AUC,CAL120_BREAST,0.812
same,AUC,CALU6_LUNG,0.794
same,AUC,CAMA1_BREAST,0.589
same,AUC,CAPAN2_PANCREAS,0.835
same,AUC,CBAGPN_BONE,0.236
same,AUC,CCK81_LARGE_INTESTINE,0.021
same,AUC,CFPAC1_PANCREAS,0.872
same,AUC,CHL1_SKIN,0.330
same,AUC,CHLA10_BONE,0.933
same,AUC,CJM_SKIN,0.215
same,AUC,CL11_LARGE_INTESTINE,0.849
same,AUC,CL34_LARGE_INTESTINE,0.604
same,AUC,COLO678_LARGE_INTESTINE,0.811
same,AUC,COLO679_SKIN,0.830
same,AUC,COLO680N_OESOPHAGUS,0.863
same,AUC,COLO741_SKIN,0.411
same,AUC,COLO792_SKIN,0.629
same,AUC,COLO800_SKIN,0.810
same,AUC,COLO829_SKIN,0.748
same,AUC,CORL23_LUNG,0.879
same,AUC,CORL105_LUNG,0.824
same,AUC,COV318_OVARY,0.883
same,AUC,COV362_OVARY,0.824
same,AUC,COV644_OVARY,0.994
same,AUC,DANG_PANCREAS,0.793
same,AUC,DAOY_CENTRAL_NERVOUS_SYSTEM,0.928
same,AUC,DBTRG05MG_CENTRAL_NERVOUS_SYSTEM,0.795
same,AUC,DETROIT562_UPPER_AERODIGESTIVE_TRACT,0.855
same,AUC,DMS53_LUNG,0.903
same,AUC,DMS273_LUNG,0.771
same,AUC,DU145_PROSTATE,0.878
same,AUC,DV90_LUNG,0.174
same,AUC,EBC1_LUNG,0.960
same,AUC,ECGI10_OESOPHAGUS,0.877
same,AUC,EFE184_ENDOMETRIUM,0.679
same,AUC,EFM19_BREAST,0.917
same,AUC,EFM192A_BREAST,0.766
same,AUC,EFO21_OVARY,0.843
same,AUC,EFO27_OVARY,0.534
same,AUC,EKVX_LUNG,0.837
same,AUC,EN_ENDOMETRIUM,0.831
same,AUC,ES2_OVARY,0.801
same,AUC,ESS1_ENDOMETRIUM,0.512
same,AUC,EW8_BONE,0.985
same,AUC,EWS502_BONE,0.875
same,AUC,FADU_UPPER_AERODIGESTIVE_TRACT,0.859
same,AUC,FTC133_THYROID,0.833
same,AUC,FTC238_THYROID,0.8424
same,AUC,G292CLONEA141B1_BONE,0.2746
same,AUC,G402_SOFT_TISSUE,0.8297
same,AUC,GAMG_CENTRAL_NERVOUS_SYSTEM,0.365
same,AUC,GB1_CENTRAL_NERVOUS_SYSTEM,0.8359
same,AUC,GCIY_STOMACH,0.8662
same,AUC,GI1_CENTRAL_NERVOUS_SYSTEM,0.5874
same,AUC,GMS10_CENTRAL_NERVOUS_SYSTEM,0.4048
same,AUC,GOS3_CENTRAL_NERVOUS_SYSTEM,0.5047
same,AUC,GP2D_LARGE_INTESTINE,0.796
same,AUC,HARA_LUNG,0.7964
same,AUC,HCC15_LUNG,0.9583
same,AUC,HCC38_BREAST,0.4873
same,AUC,HCC44_LUNG,0.906
same,AUC,HCC56_LARGE_INTESTINE,0.849
same,AUC,HCC78_LUNG,0.793
same,AUC,HCC366_LUNG,0.3183
same,AUC,HCC827_LUNG,0.516
same,AUC,HCC1143_BREAST,0.8133
same,AUC,HCC1195_LUNG,0.9004
same,AUC,HCC1359_LUNG,0.875
same,AUC,HCC1395_BREAST,0.9508
same,AUC,HCC1419_BREAST,0.8487
same,AUC,HCC1428_BREAST,0.9167
same,AUC,HCC1438_LUNG,0.9701
same,AUC,HCC1806_BREAST,0.8775
same,AUC,HCC1937_BREAST,0.579
same,AUC,HCC1954_BREAST,0.8107
same,AUC,HCC4006_LUNG,0.8403
same,AUC,HCT15_LARGE_INTESTINE,0.554
same,AUC,HCT116_LARGE_INTESTINE,0.826
same,AUC,HDQP1_BREAST,0.825
same,AUC,HEC1A_ENDOMETRIUM,0.832
same,AUC,HEC6_ENDOMETRIUM,0.858
same,AUC,HEC59_ENDOMETRIUM,0.794
same,AUC,HEC108_ENDOMETRIUM,0.812
same,AUC,HEC151_ENDOMETRIUM,0.903
same,AUC,HEC251_ENDOMETRIUM,0.698
same,AUC,HEC265_ENDOMETRIUM,0.831
same,AUC,HEP3B217_LIVER,0.596
same,AUC,HEPG2_LIVER,0.511
same,AUC,HGC27_STOMACH,0.846
same,AUC,HLF_LIVER,0.952
same,AUC,HMC18_BREAST,0.847
same,AUC,HOS_BONE,0.854
same,AUC,HS294T_SKIN,0.883
same,AUC,HS729_SOFT_TISSUE,0.598
same,AUC,HS746T_STOMACH,0.428
same,AUC,HS766T_PANCREAS,0.830
same,AUC,HS852T_SKIN,0.710
same,AUC,HS939T_SKIN,0.836
same,AUC,HS944T_SKIN,0.719
same,AUC,HSC2_UPPER_AERODIGESTIVE_TRACT,0.597
same,AUC,HSC3_UPPER_AERODIGESTIVE_TRACT,0.834
same,AUC,HT29_LARGE_INTESTINE,0.546
same,AUC,HT55_LARGE_INTESTINE,0.571
same,AUC,HT144_SKIN,0.641
same,AUC,HT1376_URINARY_TRACT,0.900
same,AUC,HUCCT1_BILIARY_TRACT,0.533
same,AUC,HUH1_LIVER,0.508
same,AUC,HUH6_LIVER,0.867
same,AUC,HUH28_BILIARY_TRACT,0.267
same,AUC,HUPT3_PANCREAS,0.876
same,AUC,HUPT4_PANCREAS,0.5948
same,AUC,IALM_LUNG,0.2481
same,AUC,IGR37_SKIN,0.8495
same,AUC,IGROV1_OVARY,0.6978
same,AUC,IM95_STOMACH,0.111
same,AUC,IPC298_SKIN,0.894
same,AUC,ISHIKAWAHERAKLIO02ER_ENDOMETRIUM,0.8402
same,AUC,ISTMES1_PLEURA,0.1381
same,AUC,ISTMES2_PLEURA,0.8192
same,AUC,J82_URINARY_TRACT,0.8263
same,AUC,JHH1_LIVER,0.469
same,AUC,JHH4_LIVER,0.680
same,AUC,JHH5_LIVER,0.806
same,AUC,JHH6_LIVER,0.449
same,AUC,JHH7_LIVER,0.778
same,AUC,JHOC5_OVARY,0.865
same,AUC,JHOM1_OVARY,0.833
same,AUC,JHOS2_OVARY,0.566
same,AUC,JHUEM2_ENDOMETRIUM,0.761
same,AUC,JIMT1_BREAST,0.816
same,AUC,JL1_PLEURA,0.591
same,AUC,JMSU1_URINARY_TRACT,0.842
same,AUC,K029AX_SKIN,0.834
same,AUC,KALS1_CENTRAL_NERVOUS_SYSTEM,0.838
same,AUC,KE39_STOMACH,0.521
same,AUC,KELLY_AUTONOMIC_GANGLIA,0.591
same,AUC,KMBC2_URINARY_TRACT,0.913
same,AUC,KMRC1_KIDNEY,0.842
same,AUC,KMRC3_KIDNEY,0.990
same,AUC,KMRC20_KIDNEY,0.951
same,AUC,KNS42_CENTRAL_NERVOUS_SYSTEM,0.826
same,AUC,KNS60_CENTRAL_NERVOUS_SYSTEM,0.795
same,AUC,KNS62_LUNG,0.842
same,AUC,KNS81_CENTRAL_NERVOUS_SYSTEM,0.808
same,AUC,KP2_PANCREAS,0.767
same,AUC,KP3_PANCREAS,0.592
same,AUC,KP4_PANCREAS,0.447
same,AUC,KPL1_BREAST,0.890
same,AUC,KPNYN_AUTONOMIC_GANGLIA,0.648
same,AUC,KU1919_URINARY_TRACT,0.926
same,AUC,KURAMOCHI_OVARY,0.857
same,AUC,KYSE70_OESOPHAGUS,0.788
same,AUC,KYSE140_OESOPHAGUS,0.883
same,AUC,KYSE150_OESOPHAGUS,0.863
same,AUC,KYSE180_OESOPHAGUS,0.865
same,AUC,KYSE270_OESOPHAGUS,0.835
same,AUC,KYSE510_OESOPHAGUS,0.870
same,AUC,KYSE520_OESOPHAGUS,0.887
same,AUC,LC1SQSF_LUNG,0.936
same,AUC,LI7_LIVER,0.811
same,AUC,LK2_LUNG,0.768
same,AUC,LN229_CENTRAL_NERVOUS_SYSTEM,0.758
same,AUC,LNCAPCLONEFGC_PROSTATE,0.672
same,AUC,LOXIMVI_SKIN,0.905
same,AUC,LS180_LARGE_INTESTINE,0.142
same,AUC,LS411N_LARGE_INTESTINE,0.811
same,AUC,LS513_LARGE_INTESTINE,0.235
same,AUC,LS1034_LARGE_INTESTINE,0.223
same,AUC,LU99_LUNG,0.421
same,AUC,LXF289_LUNG,0.858
same,AUC,MALME3M_SKIN,0.180
same,AUC,MCAS_OVARY,0.845
same,AUC,MCF7_BREAST,0.831
same,AUC,MDAMB175VII_BREAST,0.524
same,AUC,MDAMB231_BREAST,0.278
same,AUC,MDAMB435S_SKIN,0.845
same,AUC,MELHO_SKIN,0.907
same,AUC,MELJUSO_SKIN,0.845
same,AUC,MEWO_SKIN,0.267
same,AUC,MFE280_ENDOMETRIUM,0.881
same,AUC,MFE296_ENDOMETRIUM,0.824
same,AUC,MFE319_ENDOMETRIUM,0.751
same,AUC,MG63_BONE,0.968
same,AUC,MHHES1_BONE,0.984
same,AUC,MIAPACA2_PANCREAS,0.866
same,AUC,MKN1_STOMACH,0.871
same,AUC,MKN7_STOMACH,0.841
same,AUC,MKN45_STOMACH,0.338
same,AUC,MKN74_STOMACH,0.883
